Calls of active or inactive are those of the source. No cut-off for these calls is given here.
Columns and labels:
[1] = Tmax in ICR mouse at 10 mg/kg, po by LC-MS/MS analysis; assay type: ADME, organism-based; conditions: in vivo
[2] = Toxicity in mouse assessed as pathological changes in lungs administered for 14 days by Hematoxylin-Eosin staining based analysis; conditions: in vivo, 336 h, time 14 day
[3] = system: E3 ubiquitin-protein ligase RNF149/Epidermal growth factor receptor (Homo sapiens), P00533+Q8NC42 [UNDEFINED MUTATION]; test: SiHyT-mediated degrader activity at RNF149/EGFR mutant in human HCC827 cels assessed as induction of EGFR degradation at 0.1 uM cells incubated in serum-free media for 8 hrs followed by incubation with compound for 24 hrs by western blot analysis; assay type: cell-based
E3 ubiquitin-protein ligase RNF149/Epidermal growth factor receptor (Homo sapiens), P00533+Q8NC42 [UNDEFINED MUTATION], sequence (P00533 whole entry, looked up, stated change not applied): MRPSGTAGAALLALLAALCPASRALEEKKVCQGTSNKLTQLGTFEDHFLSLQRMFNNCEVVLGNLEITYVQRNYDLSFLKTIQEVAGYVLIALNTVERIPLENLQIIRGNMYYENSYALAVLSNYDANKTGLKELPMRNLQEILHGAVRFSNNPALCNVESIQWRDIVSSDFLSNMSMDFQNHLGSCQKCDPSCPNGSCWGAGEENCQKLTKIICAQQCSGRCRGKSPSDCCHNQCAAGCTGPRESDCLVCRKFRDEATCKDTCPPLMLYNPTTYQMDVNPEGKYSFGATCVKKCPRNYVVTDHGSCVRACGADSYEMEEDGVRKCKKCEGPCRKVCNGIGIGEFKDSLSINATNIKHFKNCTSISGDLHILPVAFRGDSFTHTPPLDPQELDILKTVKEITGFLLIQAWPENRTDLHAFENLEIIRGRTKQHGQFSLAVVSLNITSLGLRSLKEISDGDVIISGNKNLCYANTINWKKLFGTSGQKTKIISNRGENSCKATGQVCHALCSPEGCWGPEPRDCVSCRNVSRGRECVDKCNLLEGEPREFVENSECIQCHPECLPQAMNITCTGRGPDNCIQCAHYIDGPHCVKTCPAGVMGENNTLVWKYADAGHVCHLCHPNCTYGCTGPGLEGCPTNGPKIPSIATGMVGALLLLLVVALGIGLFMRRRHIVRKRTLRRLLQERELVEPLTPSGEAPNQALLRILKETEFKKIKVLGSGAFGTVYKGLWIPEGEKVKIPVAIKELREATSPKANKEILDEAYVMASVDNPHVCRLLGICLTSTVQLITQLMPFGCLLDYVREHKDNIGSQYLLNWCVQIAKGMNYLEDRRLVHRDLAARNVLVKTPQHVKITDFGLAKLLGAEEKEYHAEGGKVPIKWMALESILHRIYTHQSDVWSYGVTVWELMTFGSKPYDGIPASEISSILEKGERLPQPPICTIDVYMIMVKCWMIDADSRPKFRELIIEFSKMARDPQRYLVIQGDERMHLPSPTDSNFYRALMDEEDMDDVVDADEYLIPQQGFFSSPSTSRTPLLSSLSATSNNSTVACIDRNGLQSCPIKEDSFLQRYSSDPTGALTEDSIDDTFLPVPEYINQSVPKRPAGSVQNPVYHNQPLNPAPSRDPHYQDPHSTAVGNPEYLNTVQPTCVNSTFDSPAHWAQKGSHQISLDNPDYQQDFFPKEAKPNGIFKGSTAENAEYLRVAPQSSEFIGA
E3 ubiquitin-protein ligase RNF149/Epidermal growth factor receptor (Homo sapiens), P00533+Q8NC42 [UNDEFINED MUTATION], sequence (Q8NC42 whole entry, looked up, stated change not applied): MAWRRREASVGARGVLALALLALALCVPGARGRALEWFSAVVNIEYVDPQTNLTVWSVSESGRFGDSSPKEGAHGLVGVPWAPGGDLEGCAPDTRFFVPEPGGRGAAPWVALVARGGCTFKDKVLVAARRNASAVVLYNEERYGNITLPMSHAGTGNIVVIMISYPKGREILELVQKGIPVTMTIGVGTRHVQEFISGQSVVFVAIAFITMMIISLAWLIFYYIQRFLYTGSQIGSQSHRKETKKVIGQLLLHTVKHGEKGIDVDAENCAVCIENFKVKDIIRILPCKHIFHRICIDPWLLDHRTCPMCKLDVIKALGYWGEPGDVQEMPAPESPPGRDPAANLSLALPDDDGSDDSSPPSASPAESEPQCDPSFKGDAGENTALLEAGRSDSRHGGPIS

PC-9 [4] = test: SiHyT-mediated degrader activity at RNF149/EGFR mutant in human PC-9 cells assessed as induction of EGFR degradation by measuring decrease in half-time of EGFR at 2 uM incubated for 6 to 24 hrs in presence of protein synthesis inhibitor, cycloheximide by western blot analysis; assay type: cell-based; conditions: time 6-24 hrs
HCC827 = test: Antiproliferative activity against human HCC827 cells assessed as decrease in cell survival measured after 72 hrs by CCK-8 assay; assay type: functional, cell-based; conditions: HCC827, 72 h
[5] = Oral bioavailability in ICR mouse at 10 mg/kg by LC-MS/MS analysis; assay type: ADME, organism-based; conditions: in vivo
[6] = system: E3 ubiquitin-protein ligase RNF149/Epidermal growth factor receptor (Homo sapiens), P00533+Q8NC42 [UNDEFINED MUTATION]; test: SiHyT-mediated degrader activity at RNF149/EGFR mutant in human HCC827 cells assessed as induction of EGFR degradation by measuring EGFR expression level at 1 uM incubated for 24 hrs followed by drug wash-out and measured after 24 hrs by western blot analysis; assay type: cell-based
[7] = AUC in ICR mouse at 10 mg/kg, po by LC-MS/MS analysis; assay type: ADME, organism-based; conditions: in vivo
[8] = MRT in ICR mouse at 1 mg/kg, iv by LC-MS/MS analysis; assay type: ADME, organism-based; conditions: in vivo
PC-9 [9] = test: Induction of interaction between RNF149/EGFR mutant in human PC-9 cells assessed as disruption of EGFR mutant/HSP70 complex formation at 2 uM measured after 6 hrs by co-immunoprecipitation analysis; assay type: cell-based
PC-9 [10] = test: Induction of interaction between RNF149/EGFR mutant in human PC-9 cells measured after 6 hrs by co-immunoprecipitation analysis; assay type: cell-based
PC-9 [11] = test: Induction of interaction between RNF149/EGFR mutant in human PC-9 cells by pull-down based LC-MS/MS analysis; assay type: cell-based
PC-9 [12] = test: SiHyT-mediated degrader activity at RNF149/EGFR mutant in human PC-9 cells assessed as induction of EGFR degradation at 1 uM in presence of HSP90 inhibitor, geldanamycin by western blot analysis; assay type: cell-based
[13] = Toxicity in mouse assessed as pathological changes in spleen administered for 14 days by Hematoxylin-Eosin staining based analysis; assay type: tissue-based; conditions: in vivo, 336 h, time 14 day
PC-9 [14] = test: Induction of apoptosis in human PC-9 cells at 0.5 to 2 uM incubated for 48 hrs by AnnexinV-FITC/PI staining based flow cytometry; assay type: functional, cell-based; conditions: dose 0.5-2 µM
PC-9 [15] = test: SiHyT-mediated degrader activity at RNF149/EGFR mutant in human PC-9 cells assessed as induction of EGFR degradation by measuring decrease in EGFR level at 2 uM measured after 24 hrs by western blot analysis; assay type: cell-based
[16] = MRT in ICR mouse at 10 mg/kg, po by LC-MS/MS analysis; assay type: ADME, organism-based; conditions: in vivo
Mus musculus = test: In vivo induction of EGFR mutant degradation in tumor of mouse xenografted with human PC-9 cells assessed as decrease in EGFR expression at 10 mg/kg, po measured after 6 to 48 hrs by immunoblot analysis; assay type: functional, organism-based; conditions: time 6-48 hrs
[17] = system: E3 ubiquitin-protein ligase RNF149/Epidermal growth factor receptor (Homo sapiens), P00533+Q8NC42 [UNDEFINED MUTATION]; test: SiHyT-mediated degrader activity at RNF149/EGFR mutant in human HCC827 cells assessed as induction of EGFR degradation by measuring decrease in EGFR expression level at 1 uM pretreated with lysosome inhibitor, 3-MA for 4 hrs followed by incubation with compound for 24 hrs by western blot analysis; assay type: cell-based
[18] = Intrinsic clearance of the compound in mouse liver microsomes at 1 uM in presence of NADPH by LC-MS/MS analysis; assay type: ADME, Microsome; conditions: read-out: CLH
[19] = system: E3 ubiquitin-protein ligase RNF149/Epidermal growth factor receptor (Homo sapiens), P00533+Q8NC42 [UNDEFINED MUTATION]; test: SiHyT-mediated degrader activity at RNF149/EGFR mutant in human HCC827 cells assessed as induction of EGFR degradation by measuring decrease in EGFR expression level at 1 uM pretreated with E1 ligase inhibitor, PYR41 for 4 hrs followed by incubation with compound for 24 hrs by western blot analysis; assay type: cell-based
PC-9 [20] = test: (§1) SiHyT-mediated degrader activity at RNF149/EGFR mutant in human PC-9 cells assessed as induction of EGFR degradation cells incubated in serum-free media for 8 hrs followed by incubation with compound for 24 hrs by western blot analysis; assay type: cell-based
[21] = as §1; assay type: cell-based

Tmax [1]: 1 h
Activity [3]: 54.6%
bioavailability [5]: 8.67%
Activity [6]: inactive
AUC [7]: 1876.65 ng·mL·h
MRT [8]: 2.72 h
MRT [16]: 2.57 h
Activity [17]: Active
CLint scaled at 1 µM [18]: 21.9 mL/min/kg
Activity [19]: inactive
DC50 [21]: 1420 nM
Compound: COc1cc2ncnc(Nc3ccc(F)c(Cl)c3)c2cc1OCCn1cc(CCCO[Si](c2ccccc2)(c2ccccc2)C(C)(C)C)nn1
Activity [2]: Non-toxic
Activity (PC-9 [4]): Active
IC50 (HCC827): 70 nM
Activity (PC-9 [9]): inactive
Activity (PC-9 [10]): Active
Activity (PC-9 [11]): Active
Activity (PC-9 [12]): Active
Activity [13]: Non-toxic
Activity (PC-9 [14]): Dose-dependent-effect
Activity (PC-9 [15]): Active
Activity (Mus musculus): Active
Activity (PC-9 [20]): Dose-dependent-effect

From ChEMBL document CHEMBL6074674, “Development of Novel Silicon-Based Hydrophobic Tags (SiHyT) for Targeted Proteins Degradation” (J Med Chem, 2024)
